Measurements: ChEMBL document CHEMBL3045111, “Synthesis and herbicidal activities of novel 3-(substituted benzyloxy or phenoxy)-6-methyl-4-(3-trifluoromethylphenyl)pyridazine derivatives” (2012)

What was measured:
Format in all cases: functional
Echinochloa crus-galli [1] = test: Post-emergence herbicidal activity against one-leaf stage of Echinochloa crus-galli (barnyard grass) under greenhouse condition at 750 g /ha measured after 24 days by spray method; details: 576 h, read-out: GI
Digitaria [2] = test: Pre-emergence herbicidal activity against Digitaria adscendens under greenhouse condition at 750 g /ha measured after 24 days by spray method; details: in Digitaria adscendens, 576 h, read-out: GI
Digitaria [3] = test: Post-emergence herbicidal activity against one-leaf stage of Digitaria adscendens under greenhouse condition at 750 g /ha measured after 24 days by spray method; details: in Digitaria adscendens, 576 h, read-out: GI
Echinochloa crus-galli [4] = test: Pre-emergence herbicidal activity against Echinochloa crus-galli (barnyard grass) under greenhouse condition at 750 g /ha measured after 24 days by spray method; details: 576 h, read-out: GI
[5] = test system: Brassica rapa subsp. oleifera; test: Pre-emergence herbicidal activity against Brassica rapa subsp. oleifera under greenhouse condition at 750 g /ha measured after 24 days by spray method; details: 576 h, read-out: GI
Amaranthus retroflexus [6] = test: Post-emergence herbicidal activity against one-leaf stage of Amaranthus retroflexus under greenhouse condition at 750 g /ha measured after 24 days by spray method; details: 576 h, read-out: GI
Spirodela polyrhiza [7] = test: Bleaching herbicidal activity in Spirodela polyrhiza fronds cultured in compound-containing in medium assessed as chlorophyll inhibition at 10 ug/ml after 7 days; details: 168 h
Amaranthus retroflexus [8] = test: Pre-emergence herbicidal activity against Amaranthus retroflexus under greenhouse condition at 750 g /ha measured after 24 days by spray method; details: 576 h, read-out: GI
[9] = test system: Brassica rapa subsp. oleifera; test: Post-emergence herbicidal activity against one-leaf stage Brassica rapa subsp. oleifera under greenhouse condition at 750 g /ha measured after 24 days by spray method; details: 576 h, read-out: GI
Spirodela polyrhiza [10] = test: Bleaching herbicidal activity in Spirodela polyrhiza fronds cultured in compound-containing in medium assessed as chlorophyll inhibition at 1 ug/ml after 7 days; details: 168 h

Compound	inhibition of growth at 750 g/ha (Echinochloa crus-galli [1]) [%]	inhibition of growth at 750 g/ha (Digitaria [2]) [%]	inhibition of growth at 750 g/ha (Digitaria [3]) [%]	inhibition of growth at 750 g/ha (Echinochloa crus-galli [4]) [%]	inhibition of growth at 750 g/ha [5] [%]	inhibition of growth at 750 g/ha (Amaranthus retroflexus [6]) [%]	inhibition at 10 µg/mL (Spirodela polyrhiza [7]) [%]	inhibition of growth at 750 g/ha (Amaranthus retroflexus [8]) [%]	inhibition of growth at 750 g/ha [9] [%]	inhibition at 1 µg/mL (Spirodela polyrhiza [10]) [%]
Cc1cc(-c2cccc(C(F)(F)F)c2)c(Oc2c(C)cccc2C)nn1	0	13	0	2	0	34	9	19	0	8
Cc1cccc(COc2nnc(C)cc2-c2cccc(C(F)(F)F)c2)c1	0	0	0	10	0	22	46	0	13	43
Cc1cc(-c2cccc(C(F)(F)F)c2)c(OCc2ccc(Cl)cc2)nn1	0	6	0	21	17	45	66	9	72	53
Cc1ccc(Oc2nnc(C)cc2-c2cccc(C(F)(F)F)c2)c(C)c1	18	0	19	15	0	64	41	0	45	0
Cc1cc(-c2cccc(C(F)(F)F)c2)c(OCc2ccccc2F)nn1	19	10	0	13	28	39	71	4	79	65
Cc1cc(-c2cccc(C(F)(F)F)c2)c(OCc2ccc(F)cc2)nn1	2	0	56	24	8	41	87	8	87	76
Cc1cc(-c2cccc(C(F)(F)F)c2)c(Oc2ccccc2C)nn1	24	7	11	0	0	50	73	0	55	8
Cc1cc(-c2cccc(C(F)(F)F)c2)c(Oc2ccccc2F)nn1	5	11	16	6	4	73	66	23	69	63
COc1ccccc1COc1nnc(C)cc1-c1cccc(C(F)(F)F)c1	1	33	10	0	0	25	72	0	16	18
